This assay deals with MV-4-11 cells. Description: Gene expression microarray analysis (Affymetrix PrimeView) and GSEA. Conditions: MV-4-11 cells, 48 hours. Type of assay: cell-based, human. The arrangement: RFU PODN (11730768_x_at) / Fold change /veh PODN (11730768_x_at) / RFU LINC00158 (11744669_a_at) / Fold change /veh LINC00158 (11744669_a_at) / RFU DUSP10 (11751237_a_at) / Fold change /veh DUSP10 (11751237_a_at) / RFU ID3 (11757404_x_at) / Fold change /veh ID3 (11757404_x_at) / RFU PLEKHG5 (11737974_s_at) / Fold change /veh PLEKHG5 (11737974_s_at) / RFU LRRC4B (11730491_at) / Fold change /veh LRRC4B (11730491_at) / RFU GIMAP4 (11747438_a_at) / Fold change /veh GIMAP4 (11747438_a_at) / RFU KRT8 (11758183_x_at) / Fold change /veh KRT8 (11758183_x_at) / RFU CNN1 (11734310_a_at) / Fold change /veh CNN1 (11734310_a_at) / RFU VPS37D (11726825_at) / Fold change /veh VPS37D (11726825_at) / RFU C10orf10 (11716522_x_at) / Fold change /veh C10orf10 (11716522_x_at) / RFU KIR2DL2 /// KIR2DL4 /// KIR2DL5A /// KIR2DL5B /// KIR2DS1 /// KIR2DS2 /// KIR2DS3 /// KIR2DS4 /// KIR3DL3 /// KIR3DL3 /// KIR3DS1 (11738374_at) / Fold change /veh KIR2DL2 /// KIR2DL4 /// KIR2DL5A /// KIR2DL5B /// KIR2DS1 /// KIR2DS2 /// KIR2DS3 /// KIR2DS4 /// KIR3DL3 /// KIR3DL3 /// KIR3DS1 (11738374_at) / RFU C1QL1 (11718748_at) / Fold change /veh C1QL1 (11718748_at) / RFU TMPRSS4 (11747572_a_at) / Fold change /veh TMPRSS4 (11747572_a_at) / RFU HAMP (11756126_x_at) / Fold change /veh HAMP (11756126_x_at) / RFU RNFT2 (11725882_a_at) / Fold change /veh RNFT2 (11725882_a_at) / RFU NR4A2 (11747474_a_at) / Fold change /veh NR4A2 (11747474_a_at) / RFU ABCC12 (11746883_a_at) / Fold change /veh ABCC12 (11746883_a_at) / RFU TMEM136 (11760407_x_at) / Fold change /veh TMEM136 (11760407_x_at) / RFU CLDN22 /// WWC2 (11732394_at) / Fold change /veh CLDN22 /// WWC2 (11732394_at) / RFU HLA-DPB1 (11760878_x_at) / Fold change /veh HLA-DPB1 (11760878_x_at) / RFU SPINT1 (11716480_a_at) / Fold change /veh SPINT1 (11716480_a_at) / RFU GAP43 (11754022_s_at) / Fold change /veh GAP43 (11754022_s_at) / RFU A4GNT (11735810_at) / Fold change /veh A4GNT (11735810_at) / RFU PRB3 (11715151_x_at) / Fold change /veh PRB3 (11715151_x_at) / RFU TUBB4B (11761932_at) / Fold change /veh TUBB4B (11761932_at) / RFU CAPN14 (11732068_a_at) / Fold change /veh CAPN14 (11732068_a_at) / RFU TMCC2 (11721928_a_at) / Fold change /veh TMCC2 (11721928_a_at) / RFU IRGQ (11745062_a_at) / Fold change /veh IRGQ (11745062_a_at) / RFU FAM174B (11720279_a_at) / Fold change /veh FAM174B (11720279_a_at) / RFU TMPRSS4 (11748680_a_at) / Fold change /veh TMPRSS4 (11748680_a_at) / RFU FAM212B (11763350_a_at) / Fold change /veh FAM212B (11763350_a_at) / RFU PLEKHG5 (11743358_a_at) / Fold change /veh PLEKHG5 (11743358_a_at) / RFU ZSCAN30 (11745921_a_at) / Fold change /veh ZSCAN30 (11745921_a_at) / RFU CMKLR1 (11741424_a_at) / Fold change /veh CMKLR1 (11741424_a_at) / RFU LOC101060620 /// MAPK8IP1 (11723275_at) / Fold change /veh LOC101060620 /// MAPK8IP1 (11723275_at) / RFU SPTSSB (11747773_x_at) / Fold change /veh SPTSSB (11747773_x_at) / RFU PRSS12 (11739890_at) / Fold change /veh PRSS12 (11739890_at) / RFU BIN1 (11741810_x_at) / Fold change /veh BIN1 (11741810_x_at) / RFU WNT11 (11732464_a_at) / Fold change /veh WNT11 (11732464_a_at) / RFU C10orf10 (11716521_a_at) / Fold change /veh C10orf10 (11716521_a_at) / RFU C5orf56 (11738089_at) / Fold change /veh C5orf56 (11738089_at) / RFU CYB561 (11721691_x_at) / Fold change /veh CYB561 (11721691_x_at) / RFU ANKRD19P (11752326_a_at) / Fold change /veh ANKRD19P (11752326_a_at) / RFU OR2T12 /// OR2T33 /// OR2T8 (11738714_s_at) / Fold change /veh OR2T12 /// OR2T33 /// OR2T8 (11738714_s_at) / RFU VCAN (11748164_a_at) / Fold change /veh VCAN (11748164_a_at) / RFU JSRP1 (11732532_at) / Fold change /veh JSRP1 (11732532_at) / RFU KRTAP10-11 (11738290_x_at) / Fold change /veh KRTAP10-11 (11738290_x_at) / RFU MYO3A (11730013_a_at) / Fold change /veh MYO3A (11730013_a_at) / RFU EBF3 (11725865_a_at) / Fold change /veh EBF3 (11725865_a_at) / RFU CAMK2N1 (11719241_x_at) / Fold change /veh CAMK2N1 (11719241_x_at) / RFU C5orf56 (11738088_a_at) / Fold change /veh C5orf56 (11738088_a_at) / RFU OLFML3 (11715873_a_at) / Fold change /veh OLFML3 (11715873_a_at) / RFU LOC100653217 /// NTM (11731650_a_at) / Fold change /veh LOC100653217 /// NTM (11731650_a_at) / RFU MAPK11 (11762145_a_at) / Fold change /veh MAPK11 (11762145_a_at) / RFU FIZ1 (11724087_x_at) / Fold change /veh FIZ1 (11724087_x_at) / RFU OASL (11726364_x_at) / Fold change /veh OASL (11726364_x_at) / RFU SOX15 (11748057_x_at) / Fold change /veh SOX15 (11748057_x_at) / RFU CD79A (11719716_a_at) / Fold change /veh CD79A (11719716_a_at) / RFU HIST1H1D (11736915_at) / Fold change /veh HIST1H1D (11736915_at) / RFU CASKIN2 (11723855_a_at) / Fold change /veh CASKIN2 (11723855_a_at) / RFU LOC730098 (11760151_x_at) / Fold change /veh LOC730098 (11760151_x_at) / RFU OR4N2 (11742367_at) / Fold change /veh OR4N2 (11742367_at) / RFU PRRT2 (11749266_a_at) / Fold change /veh PRRT2 (11749266_a_at) / RFU SNX32 (11753110_a_at) / Fold change /veh SNX32 (11753110_a_at) / RFU CDHR5 (11726645_a_at) / Fold change /veh CDHR5 (11726645_a_at) / RFU RCAN1 (11760418_a_at) / Fold change /veh RCAN1 (11760418_a_at) / RFU FAM167A (11723789_a_at) / Fold change /veh FAM167A (11723789_a_at) / RFU FAM26E (11764081_at) / Fold change /veh FAM26E (11764081_at) / RFU ISYNA1 (11749810_s_at) / Fold change /veh ISYNA1 (11749810_s_at) / RFU ACY1 (11761880_at) / Fold change /veh ACY1 (11761880_at) / RFU 11764098_at / Fold change /veh 11764098_at / RFU SAMD14 (11745864_x_at) / Fold change /veh SAMD14 (11745864_x_at) / RFU NPB (11741838_a_at) / Fold change /veh NPB (11741838_a_at) / RFU TMPRSS6 (11731388_a_at) / Fold change /veh TMPRSS6 (11731388_a_at) / RFU KRTAP10-2 (11738614_at) / Fold change /veh KRTAP10-2 (11738614_at) / RFU ARHGAP8 /// PRR5-ARHGAP8 (11727945_x_at) / Fold change /veh ARHGAP8 /// PRR5-ARHGAP8 (11727945_x_at) / RFU KRTAP5-7 /// NADSYN1 (11734609_at) / Fold change /veh KRTAP5-7 /// NADSYN1 (11734609_at) / RFU RASL12 (11751679_a_at) / Fold change /veh RASL12 (11751679_a_at) / RFU CDKN2B (11736163_a_at) / Fold change /veh CDKN2B (11736163_a_at) / RFU PRF1 (11729649_at) / Fold change /veh PRF1 (11729649_at) / RFU, ZNF638 /// ZNF638-IT1 / Fold change vs veh, ZNF638 /// ZNF638-IT1 / RFU, PANK3 / Fold change vs veh, PANK3 / RFU, SH3YL1 / Fold change vs veh, SH3YL1 / RFU, ZEB2 / Fold change vs veh, ZEB2 / RFU, NRIP1 / Fold change vs veh, NRIP1 / RFU, PTTG1IP / Fold change vs veh, PTTG1IP / RFU, CAPN2 / Fold change vs veh, CAPN2 / RFU, MED14 / Fold change vs veh, MED14 / RFU, SNORA58 / Fold change vs veh, SNORA58 / RFU, C1orf63 / Fold change vs veh, C1orf63 / RFU, LRRFIP1 / Fold change vs veh, LRRFIP1 / RFU, NDUFAF7 / Fold change vs veh, NDUFAF7 / RFU, SLC12A2 / Fold change vs veh, SLC12A2 / RFU, IBTK / Fold change vs veh, IBTK / RFU, ESF1 / Fold change vs veh, ESF1 / Fold change vs veh, TMEM50B / RFU, TAOK1 / Fold change vs veh, TAOK1 / RFU, ACBD3 / Fold change vs veh, ACBD3 / RFU, TMA16 / Fold change vs veh, TMA16 / RFU, RWDD3 / Fold change vs veh, RWDD3 / RFU, BCAT1 / Fold change vs veh, BCAT1 / RFU, EDEM3 / Fold change vs veh, EDEM3 / RFU, TMEM33 / Fold change vs veh, TMEM33 / RFU, WDR75 / Fold change vs veh, WDR75 / RFU, AHCTF1 / Fold change vs veh, AHCTF1 / RFU, TFRC / Fold change vs veh, TFRC / RFU, ZDHHC17 / Fold change vs veh, ZDHHC17 / RFU, NOM1 / Fold change vs veh, NOM1 / RFU, ARL8B / Fold change vs veh, ARL8B / RFU, ZBTB11 / Fold change vs veh, ZBTB11 / RFU, TAMM41 / Fold change vs veh, TAMM41 / RFU, KIAA1704 /// LOC100996395 / Fold change vs veh, KIAA1704 /// LOC100996395 / RFU, ING1 / Fold change vs veh, ING1 / RFU, TRMT61B / Fold change vs veh, TRMT61B / RFU, FUBP3 / Fold change vs veh, FUBP3 / RFU, TP53 / Fold change vs veh, TP53 / RFU, TNKS2 / Fold change vs veh, TNKS2 / RFU, ZFP14 / Fold change vs veh, ZFP14 / RFU, ACTR2 / Fold change vs veh, ACTR2 / RFU, PPP3R1 / Fold change vs veh, PPP3R1 / RFU, PIK3R1 / Fold change vs veh, PIK3R1 / RFU, HNRNPA1 / Fold change vs veh, HNRNPA1 / RFU, RNF170 / Fold change vs veh, RNF170 / RFU, ZNF28 / Fold change vs veh, ZNF28 / RFU, RNGTT / Fold change vs veh, RNGTT / RFU, OGT / Fold change vs veh, OGT / RFU, BRD1 / Fold change vs veh, BRD1 / RFU, MARS / Fold change vs veh, MARS / RFU, ZNF655 / Fold change vs veh, ZNF655 / RFU, FAHD1 / Fold change vs veh, FAHD1 / RFU, BDP1 / Fold change vs veh, BDP1 / RFU, LRRCC1 / Fold change vs veh, LRRCC1 / RFU, ARID1A / Fold change vs veh, ARID1A / RFU, ZNF146 / Fold change vs veh, ZNF146 / RFU, ZNF330 / Fold change vs veh, ZNF330 / RFU, GPN3 / Fold change vs veh, GPN3 / RFU, C9orf123 / Fold change vs veh, C9orf123 / RFU, N4BP2L2 / Fold change vs veh, N4BP2L2 / RFU, ARFIP1 / Fold change vs veh, ARFIP1 / RFU, FAM179B / Fold change vs veh, FAM179B / RFU, BCL10 / Fold change vs veh, BCL10 / RFU, UHRF1BP1L / Fold change vs veh, UHRF1BP1L / RFU, BET1 / Fold change vs veh, BET1 / RFU, CNOT2 / Fold change vs veh, CNOT2 / RFU, ZNF268 / Fold change vs veh, ZNF268 / Fold change vs veh, ZNF507 / RFU, DGCR2 / Fold change vs veh, DGCR2 / RFU, WDSUB1 / Fold change vs veh, WDSUB1 / Fold change vs veh, HSP90B1 /// MIR3652 / RFU, ADSS / Fold change vs veh, ADSS / RFU, GK / Fold change vs veh, GK / RFU, ZNF148 / Fold change vs veh, ZNF148 / RFU, TAF9 / Fold change vs veh, TAF9 / RFU, SLC1A5 / Fold change vs veh, SLC1A5 / RFU, SLMO2 / Fold change vs veh, SLMO2 / RFU, ABCC4 / Fold change vs veh, ABCC4 / RFU, LOC101060439 /// RAP1B / Fold change vs veh, LOC101060439 /// RAP1B / RFU, RFX7 / Fold change vs veh, RFX7 / RFU, GTPBP10 / Fold change vs veh, GTPBP10 / RFU, CNEP1R1 / Fold change vs veh, CNEP1R1 / RFU, BIVM-ERCC5 /// ERCC5 / Fold change vs veh, BIVM-ERCC5 /// ERCC5 / RFU, ILF3 / Fold change vs veh, ILF3 / RFU 11762660_at / Fold change /veh 11762660_at / RFU VCAN (11757783_s_at) / Fold change /veh VCAN (11757783_s_at) / RFU DDX43 (11728927_at) / Fold change /veh DDX43 (11728927_at) / RFU KRT8 (11758188_x_at) / Fold change /veh KRT8 (11758188_x_at) / RFU NKD1 (11759106_at) / Fold change /veh NKD1 (11759106_at) / RFU SRD5A1 (11742802_a_at) / Fold change /veh SRD5A1 (11742802_a_at) / RFU TPSAB1 /// TPSB2 (11721975_s_at) / Fold change /veh TPSAB1 /// TPSB2 (11721975_s_at) / RFU GSTM3 (11746129_a_at) / Fold change /veh GSTM3 (11746129_a_at) / RFU IL23R (11737362_x_at) / Fold change /veh IL23R (11737362_x_at) / RFU TMEM51 (11727254_a_at) / Fold change /veh TMEM51 (11727254_a_at) / RFU PIWIL2 (11732686_x_at) / Fold change /veh PIWIL2 (11732686_x_at) / RFU ORM1 (11744905_x_at) / Fold change /veh ORM1 (11744905_x_at) / RFU CCDC152 (11743942_at) / Fold change /veh CCDC152 (11743942_at) / RFU ECM1 (11717891_a_at) / Fold change /veh ECM1 (11717891_a_at) / RFU IL23R (11748794_a_at) / Fold change /veh IL23R (11748794_a_at) / RFU TNFAIP8L3 (11732012_x_at) / Fold change /veh TNFAIP8L3 (11732012_x_at) / RFU MBOAT4 (11741988_at) / Fold change /veh MBOAT4 (11741988_at) / RFU 11764193_at / Fold change /veh 11764193_at / RFU TMEM53 (11763286_at) / Fold change /veh TMEM53 (11763286_at) / RFU MAGEB2 (11727129_at) / Fold change /veh MAGEB2 (11727129_at) / RFU TMEM200A (11744735_a_at) / Fold change /veh TMEM200A (11744735_a_at) / RFU CCDC152 (11751479_a_at) / Fold change /veh CCDC152 (11751479_a_at) / RFU FAM211A (11726209_a_at) / Fold change /veh FAM211A (11726209_a_at) / RFU RGS16 (11746705_a_at) / Fold change /veh RGS16 (11746705_a_at) / RFU VCAN (11755009_s_at) / Fold change /veh VCAN (11755009_s_at) / RFU RHOB (11743442_s_at) / Fold change /veh RHOB (11743442_s_at) / RFU RGS16 (11720943_a_at) / Fold change /veh RGS16 (11720943_a_at) / RFU RGS16 (11720944_at) / Fold change /veh RGS16 (11720944_at) / RFU, VPS4B / Fold change vs veh, VPS4B / RFU, CREB1 / Fold change vs veh, CREB1 / RFU, DNAJC13 / Fold change vs veh, DNAJC13 / RFU, GNAQ / Fold change vs veh, GNAQ / RFU, CDK5R1 / Fold change vs veh, CDK5R1 / RFU, ZRANB3 / Fold change vs veh, ZRANB3 / RFU, CUL4A / Fold change vs veh, CUL4A / RFU, CCNY / Fold change vs veh, CCNY / RFU, UFL1 / Fold change vs veh, UFL1 / RFU, COG3 / Fold change vs veh, COG3 / RFU, DIAPH2 / Fold change vs veh, DIAPH2 / RFU, SKA2 / Fold change vs veh, SKA2 / RFU, AFF3 / Fold change vs veh, AFF3 / RFU, LMF1 / Fold change vs veh, LMF1 / RFU, IPO11 / Fold change vs veh, IPO11 / RFU, DFFB / Fold change vs veh, DFFB / RFU, FOXP1 / Fold change vs veh, FOXP1 / RFU, CARD8 / Fold change vs veh, CARD8 / RFU, STRN3 / Fold change vs veh, STRN3 / RFU, ADK / Fold change vs veh, ADK / RFU, RASSF2 / Fold change vs veh, RASSF2 / RFU, WIPF1 / Fold change vs veh, WIPF1 / RFU, LARP1B / Fold change vs veh, LARP1B / RFU, RASA1 / Fold change vs veh, RASA1 / RFU, RB1 / Fold change vs veh, RB1 / RFU, PPFIA1 / Fold change vs veh, PPFIA1 / RFU, MAT2A / Fold change vs veh, MAT2A / RFU, CCT5 / Fold change vs veh, CCT5 / RFU, WDR92 / Fold change vs veh, WDR92 / RFU, CUX1 / Fold change vs veh, CUX1 / RFU, TTC7A / Fold change vs veh, TTC7A / RFU, TMEM135 / Fold change vs veh, TMEM135 / RFU, DEPTOR / Fold change vs veh, DEPTOR / RFU, CPM / Fold change vs veh, CPM / RFU, DNAJB6 / Fold change vs veh, DNAJB6 / RFU, CACNA2D3 / Fold change vs veh, CACNA2D3 / RFU, DTX4 / Fold change vs veh, DTX4 / RFU, TFCP2 / Fold change vs veh, TFCP2 / RFU, GMCL1 /// GMCL1P1 / Fold change vs veh, GMCL1 /// GMCL1P1 / RFU, AEBP2 / Fold change vs veh, AEBP2 / RFU, SNHG1 /// SNORD22 /// SNORD25 /// SNORD26 /// SNORD27 /// SNORD28 /// SNORD29 /// SNORD31 / Fold change vs veh, SNHG1 /// SNORD22 /// SNORD25 /// SNORD26 /// SNORD27 /// SNORD28 /// SNORD29 /// SNORD31 / Fold change (Aza/veh), C12orf56 (ProbeSet 11735607_a_at) / Fold change (ACY-1035/veh), C12orf56 (ProbeSet 11735607_a_at) / Fold change (Aza/veh), FGFR1OP (ProbeSet 11751329_s_at) / Fold change (ACY-1035/veh), FGFR1OP (ProbeSet 11751329_s_at) / Fold change (Aza/veh), VPS36 (ProbeSet 11739960_a_at) / Fold change (ACY-1035/veh), VPS36 (ProbeSet 11739960_a_at) / RFU SYPL1 (11715823_x_at) / Fold change /veh SYPL1 (11715823_x_at) / RFU IGFBP7 (11715501_s_at) / Fold change /veh IGFBP7 (11715501_s_at) / RFU REEP3 (11722064_at) / Fold change /veh REEP3 (11722064_at) / RFU IGLL1 (11728026_x_at) / Fold change /veh IGLL1 (11728026_x_at): dose or concentration left out as unconfirmed.

From publication PMC5218480 (PLoS ONE, 2017) come the findings set out here.

Regarding `Nc1ncn([C@@H]2O[C@H](CO)[C@@H](O)[C@H]2O)c(=O)n1` [azacitidine], the “RFU A4GNT (11735810_at)” value is recorded as 14.85 RFU.
